# Reference: US11786555B2, “RAR selective agonists in combination with immune modulators for cancer immunotherapy” (IO THERAPEUTICS, INC., priority 2017, dated 2023)
# What was measured:
# [1] = biological target: T1, RARγ (Homo sapiens, UniProt P13631); test: displacement assay, agonist binding affinity; conditions: read-out: Binding Affinities for RARγ
# T1 sequence (P13631 1-454): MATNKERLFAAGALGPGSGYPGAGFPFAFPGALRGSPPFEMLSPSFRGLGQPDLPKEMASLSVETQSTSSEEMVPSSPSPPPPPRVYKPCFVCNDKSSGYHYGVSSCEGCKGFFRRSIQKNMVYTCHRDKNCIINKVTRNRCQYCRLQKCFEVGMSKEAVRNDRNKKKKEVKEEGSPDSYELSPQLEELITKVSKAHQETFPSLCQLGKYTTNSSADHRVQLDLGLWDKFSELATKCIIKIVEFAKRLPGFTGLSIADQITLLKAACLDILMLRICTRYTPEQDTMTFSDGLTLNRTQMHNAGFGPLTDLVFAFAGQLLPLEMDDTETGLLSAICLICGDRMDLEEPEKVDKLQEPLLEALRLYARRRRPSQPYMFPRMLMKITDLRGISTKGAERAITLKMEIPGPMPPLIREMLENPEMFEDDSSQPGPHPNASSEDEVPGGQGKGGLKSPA
# Description: Binding assays are performed using a classic competition assay format in which cloned receptor RAR molecules are first loaded with radiolabeled all-trans-retinoic acid […] and then the amount of radioactivity liberated with increasing concentration of test compound is measured.
# [2] = system: naive CD4+ CD25− FoxP3− cells; test: in vitro Th17 cell differentiation; format: cell-based, mouse; conditions: 0.1 nM
# Description: To determine whether a RARα agonist could affect T cell differentiation, T cells were incubated with a RARα agonist to determine its effect on Foxp3 expression. Naive CD4^+ CD25^− FoxP3^− cells were purified from a Foxp3-GFP mouse using flow cytometry by sorting and isolating based upon a GFP^− phenotype. These cells were activated polyclonally with αCD3 in vitro in the presence of IL-2 and TGF-β. These cells were then cultured in media with various concentrations of compound IRX5183 (a RARα agonist) and the expression of FoxP3-GFP was analyzed by flow cytometry. The RARα agonist compound IRX5183 enhanced differentiation of immunosuppressive Treg cells and inhibited differentiation of inflammatory TH17 cells from naïve T cells in vitro (Table 2).
# [3] = system: CD4+ T cells; test: in vivo T cell differentiation in mice (blood and spleen); parameters: species or system mouse; conditions: 100 μg every other day for 10 days
# Description: To expand on the finding above, the in vivo effects of a RARα agonist on T cell differentiation was evaluated in a mouse model. Mice were treated with 100 μg of compound IRX5183 or an equivalent volume of DMSO (vehicle control) every other day for 10 days. Lymphocytes from the blood and spleen were then isolated and FoxP3 expression in CD4^+ T cells was assessed.
# [4] = system: H929 Luc+ cells; test: systemic MM xenograft, bioluminescence; format: in vivo, mouse; conditions: 4 weeks
# Description: FIG. 6 depicts bioluminescent images of systemic MM xenografts. Following engraftment of H929 Luc+ cells, mice were treated with IRX (n=4), BTZ (n=5), or a combination of both (n=5) for 4 weeks. Data represent the mean±SEM of the fold change in bioluminescence (photons/second) from day 0.
# For the systemic MM model, 2×10^6 Luc+/GFP+ H929 cells were injected via the tail vein into 16-week-old male NSG mice. After engraftment, as determined by an exponential increase in bioluminescence, mice were treated with BTZ (0.5 mg/kg i.p.) twice weekly and with IRX (10 mg/kg) once daily. Tumor burden was assessed by bioluminescence, as above.
# To test whether retinoids can enhance BTZ activity in MM, a systemic MM xenograft was developed by injecting 2×10^6 H929 luciferase+ (Luc+) cells via the tail vein of non-obese, diabetic, severe combined immunodeficiency IL-2 receptor y-KO (NSG) mice. The animals were randomized to receive IRX, BTZ, or a combination of both, and disease burden was followed weekly by bioluminescence imaging (FIG. 6).
# [5] = system: H929 Luc+ cells with WT or Smo-KO stroma; test: subcutaneous xenograft model of MM-niche interactions, bioluminescence; format: in vivo, mouse
# Description: FIG. 9 depicts bioluminescent images of mice showing tumor burden during 4 weeks of treatment with IRX (10 mg/kg), BTZ (0.5 mg/kg), or the combination. Anterior tumors consisted of a combination of MM.1S luciferase^+ cells and Smo^FI/FI BM stroma cells transduced with a control vector (WT BM stroma). Posterior tumors consisted of a combination of MM.1S luciferase^+ cells and Smo^FI/FI BM stroma cells transduced with Cre-recombinase (Smo KO BM stroma).
# FIG. 10 depicts the fold change in bioluminescence (photons/second) of tumors during 4 weeks of treatment. The change in bioluminescence for each tumor […].
# Mouse xenografts. 1×10^6 H929 Luc+ cells and 1×10^6 mouse BM stromal cells were resuspended in 100 μl […]®, diluted with RPMI (1:1), and injected subcutaneously into 16-week-old male NSG mice. After 4 days, treatment with BTZ (0.5 mg/kg i.p. twice weekly) and IRX (10 mg/kg i.p. daily) was initiated. Tumor burden was assessed by bioluminescence using the In Vivo Imaging System (PerkinElmer). For imaging, mice were exposed to 120 mg/kg D-luciferin via intraperitoneal injection […] before imaging and were anesthetized using isoflurane. Images were analyzed with Living Image Software, version 2.5 (PerkinElmer), and data were quantified as photons/second.
# To study to what extent an RA-low environment created by the BM stroma and enhanced by MM cells via paracrine Hedgehog signaling contributes to BTZ resistance, a xenograft model of MM-niche interactions was developed. Each mouse carried 2 subcutaneous tumors consisting of H929 Luc+ cells and either WT (anterior tumors) or Smo-KO stroma (posterior tumors). Mice were treated with IRX (10 mg/kg i.p. daily), BTZ (0.5 mg/kg i.p. twice weekly), or a combination of both. The growth of tumors bearing WT or Smo-KO stroma was not different in untreated or IRX-treated groups (FIGS. 9 and 10). […] While some tumors in the treatment group receiving combined IRX and BTZ appeared to have regressed completely, even after anatomical study, this was not the case for all the mice in this group.
# [6] = system: Kasumi-1 cells; test: CFU experiments, off and on stroma; format: cell-based; conditions: 10^−6 M ATRA, IRX5183, or 10^−7 M AM80
# From the text: (§1) Data across three independent experiments.
# [7] = system: NB4 cells; test: CFU experiments, off and on stroma; format: cell-based; conditions: 10^−7 M ATRA, IRX5183, or 10^−8 M AM80
# From the text: as §1
# [8] = system: OCI-AML3 cells; test: CFU experiments, off and on stroma; format: cell-based; conditions: 10^−6 M ATRA, IRX5183, or 10^−7 M AM80
# From the text: as §1
smiles,measurement,setting,value
CC1(C)CCC(C)(C)c2c1cc(C(=O)Nc1cc(F)c(C(=O)O)c(F)c1)c(O)c2Cl [IRX5183],Kd,[1],> 10 µM
same,Th17 cell Percent Differentiation,[2],32%
same,Foxp3+ Expression,[3]; Blood,4.3%
same,Foxp3+ Expression,[3]; Spleen,25%
same,disease burden (bioluminescence),[4]; combination of IRX 10 mg/kg daily and BTZ 0.5 mg/kg twice weekly,significant (P<0.01) decrease in disease burden
same,tumor burden (bioluminescence),"[4]; monotherapy, BTZ 0.5 mg/kg i.p. twice weekly, IRX 10 mg/kg once daily",decrease in tumor burden compared with untreated mice
same,growth of tumors bearing WT versus Smo-KO stroma,[5]; IRX 10 mg/kg i.p. daily,not different
same,tumor response (bioluminescence),"[5]; combination of IRX and BTZ, WT or Smo-KO stroma","significant and equivalent response, regardless of the phenotype of the stromal compartment"
same,"clonogenic growth (CFU), differentiation and elimination of AML",[6],decrease in clonogenic growth compared to control
same,"clonogenic growth (CFU), differentiation and elimination of AML",[7],decrease in clonogenic growth compared to control
same,"clonogenic growth (CFU), differentiation and elimination of AML",[8],decrease in clonogenic growth compared to control
